Reference: PubChem BioAssay AID1919002 (Molecular Pharmacology Branch, DTP, NCI, 2023)

Tested on: 743489-274-T-PDC complex spheroid growth
Test: Anticancer human tumor 743489-274-T-PDC patient-derived renal cell carcinoma cell line growth inhibition [AhR]
Details: for IC50: curve of first compound; for viability, T/C: stronger effect = lower value
Text: Multicellular complex tumor spheroid response to aryl hydrocarbon receptor antagonists in combination with a variety of drugs and investigational agents in selected tumor cell lines
The current study was undertaken to assess response to aryl hydrocarbon receptor antagonists in combination with standard-of-care drugs and investigational agents in solid tumor complex spheroid models. Complex spheroids include a stromal component modeled by human endothelial cells (HUVEC) and fibroblasts modeled by human mesenchymal stem cells (MSCs). The concentration ranges selected for each drug and investigational agent were based upon clinically achievable concentrations if the clinical Cmax of the agent was known.
Compounds. The drugs and investigational agents: BAY 2416964 (NSC825713), GNF351 (NSC835774), CH-223191 (NSC835775), CPI-455 (NSC825282), aza-TdCyd (NSC777586), decitabine (NSC127716), belinostat (NSC758774), entinostat (NSC756642), pevonedistat (NSC761192), tazemetostat (NSC777109), talazoparib (NSC765396), olaparib (NSC753686), selinexor (NSC780203), nedisertib (M3814, NSC802822), bortezomib (NSC756655), venetoclax (NSC766270), doxorubicin (NSC123127), elimusertib (BAY189344, NSC800525), ceralasertib (AZD6738, NSC777638), TAK-243 (NSC785004), alisertib (NSC759677), etoposide (NSC141540), topotecan (NSC609699), eribulin (NSC707389), gemcitabine (NSC613327), carboplatin (NSC241240), cisplatin (NSC119875), and SN-38 (NSC673596) were obtained from the National Cancer Institute (NCI) Developmental Therapeutics Program Chemical Repository (32). The FDA-approved anticancer drug set is available from the Developmental Therapeutics Program at https://dtp.cancer.gov/organization/dscb/obtaining/available plates.htm. […] The stock solutions were prepared in dimethyl sulfoxide (DMSO, Sigma-Aldrich, St. Louis, MO, cat. D2650), except for the platinum compounds which were prepared in saline (Quality Biological, Gaithersburg, MD, cat. 114-055-101), at 800-fold the tested concentration and stored at -70 degrees C prior to their use. All drugs and investigational agents were tested over a range starting from a high concentration at or near the clinical Cmax and decreasing in half-log increments. If the clinical Cmax for an agent had not been determined, the highest concentration tested was 10 microM (Table 1).
Cell Culture. All cells were maintained in an incubator at 37 degrees C and 5% CO2 with 95% humidity. The PDC lines were cultured according to standard operating procedures established by the NCI PDMR (https://pdmr.cancer.gov). Briefly, all PDCs were thawed and cultured in Matrigel-coated flasks prepared with a working solution of 1X Ham's F-12 nutrient mix, without supplementation (Invitrogen, Waltham, MA, cat. 11765054), 100 U/mL penicillin-streptomycin (Invitrogen, cat. 15140122), and 2.5% Matrigel (Corning Inc., Corning, NY, cat. 354248) for the first three passages. All PDCs were cultured in complete DMEM/F-12 media containing advanced DMEM/F-12 (Invitrogen, cat. 12634028), 4.9% defined fetal bovine serum, heat inactivated (HyClone Laboratories Inc., Logan, UT, cat. SH30070.03HI), 389 ng/mL hydrocortisone (Sigma-Aldrich, cat. H4001), 9.7 ng/mL human EGF recombinant protein (Invitrogen, cat. PHG0313), 23.4 microg/mL adenine (Sigma-Aldrich, cat. A2786), 97.3 U/mL penicillin-streptomycin (Invitrogen, cat. 15140122), 1.9 mM L-glutamine (Invitrogen, cat. 25030081), and 9.7 microM Y-27632 dihydrochloride (Tocris Bioscience, Bristol, United Kingdom, cat. 1254). The PDCs were cultured in complete DMEM/F12 media without 10 microM Y-27632 dihydrochloride for at least two passages prior to the screen. The established cell lines NCI-H1341 and […] were cultured in DMEM/F-12, HEPES (Invitrogen, cat. 11330032), 5% defined fetal bovine serum (HyClone Laboratories Inc., cat. SH30070.03), ITS premix universal culture supplement [insulin (5 microg/mL), transferrin (5 microg/mL), and selenious acid (5 ng/mL)] […]

[1] = second compound 0.1 µM, first compound 0.0316 µM
[2] = second compound 0.1 µM, first compound 0.1 µM
[3] = second compound 0.1 µM, first compound 0.316 µM
[4] = second compound 0.1 µM, first compound 1 µM
[5] = second compound 0.1 µM, first compound 3.16 µM
[6] = second compound 0.1 µM, first compound 10 µM
[7] = second compound 0.316 µM, first compound 0.0316 µM
[8] = second compound 0.316 µM, first compound 0.1 µM
[9] = second compound 0.316 µM, first compound 0.316 µM
[10] = second compound 0.316 µM, first compound 1 µM
[11] = second compound 0.316 µM, first compound 3.16 µM
[12] = second compound 0.316 µM, first compound 10 µM
[13] = second compound 1 µM, first compound 0.0316 µM
[14] = second compound 1 µM, first compound 0.1 µM
[15] = second compound 1 µM, first compound 0.316 µM
[16] = second compound 1 µM, first compound 1 µM
[17] = second compound 1 µM, first compound 3.16 µM
[18] = second compound 1 µM, first compound 10 µM
[19] = second compound 3.16 µM, first compound 0.0316 µM
[20] = second compound 3.16 µM, first compound 0.1 µM
[21] = second compound 3.16 µM, first compound 0.316 µM
[22] = second compound 3.16 µM, first compound 1 µM
[23] = second compound 3.16 µM, first compound 3.16 µM
[24] = second compound 3.16 µM, first compound 10 µM
[25] = second compound 10 µM, first compound 0.0316 µM
[26] = second compound 10 µM, first compound 0.1 µM
[27] = second compound 10 µM, first compound 0.316 µM
[28] = second compound 10 µM, first compound 1 µM
[29] = second compound 10 µM, first compound 3.16 µM
[30] = second compound 10 µM, first compound 10 µM
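Also: spheroids exposed to agents for 7 days before readout.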
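For viability, T/C in this document: 100% = DMSO vehicle control wells.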

COc1cc(Nc2ncc3c(n2)-c2ccc(Cl)cc2C(c2c(F)cccc2OC)=NC3)ccc1C(=O)O + CC(CO)NC(=O)c1cc(-c2ccc(Cl)cc2)nn(-c2cnn(C)c2)c1=O
IC50 (second compound 0.1 µM): > 10 µM
IC50 (second compound 0.316 µM): > 10 µM
IC50 (second compound 1 µM): > 10 µM
IC50 (second compound 3.16 µM): > 10 µM
IC50 (second compound 10 µM): > 10 µM
viability, T/C [1]: 96.9%
viability, T/C [2]: 95.2%
viability, T/C [3]: 91.4%
viability, T/C [4]: 84.4%
viability, T/C [5]: 86.4%
viability, T/C [6]: 88.9%
viability, T/C [7]: 98.7%
viability, T/C [8]: 90.3%
viability, T/C [9]: 91.3%
viability, T/C [10]: 86.6%
viability, T/C [11]: 93.5%
viability, T/C [12]: 85.5%
viability, T/C [13]: 90.6%
viability, T/C [14]: 97.3%
viability, T/C [15]: 95.5%
viability, T/C [16]: 76.4%
viability, T/C [17]: 87.9%
viability, T/C [18]: 87.3%
viability, T/C [19]: 101%
viability, T/C [20]: 104%
viability, T/C [21]: 95.2%
viability, T/C [22]: 85.7%
viability, T/C [23]: 82%
viability, T/C [24]: 84.9%
viability, T/C [25]: 91.2%
viability, T/C [26]: 102%
viability, T/C [27]: 86.9%
viability, T/C [28]: 93.9%
viability, T/C [29]: 88.6%
viability, T/C [30]: 94.5%

Cn1ncnc1C1c2n[nH]c(=O)c3cc(F)cc(c23)NC1c1ccc(F)cc1 (stereo not given) + CC(CO)NC(=O)c1cc(-c2ccc(Cl)cc2)nn(-c2cnn(C)c2)c1=O
IC50 (second compound 0.1 µM): > 0.1 µM
IC50 (second compound 0.316 µM): > 0.1 µM
IC50 (second compound 1 µM): > 0.1 µM
IC50 (second compound 3.16 µM): > 0.1 µM
IC50 (second compound 10 µM): > 0.1 µM
viability, T/C (second compound 0.1 µM, first compound 0.000316 µM): 90.7%
viability, T/C (second compound 0.1 µM, first compound 0.001 µM): 98%
viability, T/C (second compound 0.1 µM, first compound 0.00316 µM): 106%
viability, T/C (second compound 0.1 µM, first compound 0.01 µM): 95%
viability, T/C [1]: 89.6%
viability, T/C [2]: 86.8%
viability, T/C (second compound 0.316 µM, first compound 0.000316 µM): 85.5%
viability, T/C (second compound 0.316 µM, first compound 0.001 µM): 95.8%
viability, T/C (second compound 0.316 µM, first compound 0.00316 µM): 115%
viability, T/C (second compound 0.316 µM, first compound 0.01 µM): 88%
viability, T/C [7]: 80.6%
viability, T/C [8]: 84.8%
viability, T/C (second compound 1 µM, first compound 0.000316 µM): 94.1%
viability, T/C (second compound 1 µM, first compound 0.001 µM): 97.6%
viability, T/C (second compound 1 µM, first compound 0.00316 µM): 102%
viability, T/C (second compound 1 µM, first compound 0.01 µM): 87%
viability, T/C [13]: 82.7%
viability, T/C [14]: 91.8%
viability, T/C (second compound 3.16 µM, first compound 0.000316 µM): 93.9%
viability, T/C (second compound 3.16 µM, first compound 0.001 µM): 92.2%
viability, T/C (second compound 3.16 µM, first compound 0.00316 µM): 91.4%
viability, T/C (second compound 3.16 µM, first compound 0.01 µM): 92.1%
viability, T/C [19]: 89.4%
viability, T/C [20]: 93.4%
viability, T/C (second compound 10 µM, first compound 0.000316 µM): 83.7%
viability, T/C (second compound 10 µM, first compound 0.001 µM): 86.3%
viability, T/C (second compound 10 µM, first compound 0.00316 µM): 85%
viability, T/C (second compound 10 µM, first compound 0.01 µM): 99%
viability, T/C [25]: 90.9%
viability, T/C [26]: 83.1%

NS(=O)(=O)OCC1CC(n2ccc3c(NC4CCc5ccccc54)ncnc32)CC1O (stereo not given) + CC(CO)NC(=O)c1cc(-c2ccc(Cl)cc2)nn(-c2cnn(C)c2)c1=O
IC50 (second compound 0.1 µM): > 10 µM
IC50 (second compound 0.316 µM): > 10 µM
IC50 (second compound 1 µM): > 10 µM
IC50 (second compound 3.16 µM): > 10 µM
IC50 (second compound 10 µM): > 10 µM
viability, T/C [1]: 89.3%
viability, T/C [2]: 89.7%
viability, T/C [3]: 101%
viability, T/C [4]: 123%
viability, T/C [5]: 149%
viability, T/C [6]: 155%
viability, T/C [7]: 86.1%
viability, T/C [8]: 82.3%
viability, T/C [9]: 85.7%
viability, T/C [10]: 119%
viability, T/C [11]: 148%
viability, T/C [12]: 156%
viability, T/C [13]: 82.3%
viability, T/C [14]: 96.7%
viability, T/C [15]: 99.2%
viability, T/C [16]: 116%
viability, T/C [17]: 141%
viability, T/C [18]: 143%
viability, T/C [19]: 91.1%
viability, T/C [20]: 86.1%
viability, T/C [21]: 99.2%
viability, T/C [22]: 109%
viability, T/C [23]: 132%
viability, T/C [24]: 136%
viability, T/C [25]: 89.5%
viability, T/C [26]: 96.1%
viability, T/C [27]: 84.8%
viability, T/C [28]: 112%
viability, T/C [29]: 119%
viability, T/C [30]: 129%

O=C(C=Cc1cccc(S(=O)(=O)Nc2ccccc2)c1)NO + CC(CO)NC(=O)c1cc(-c2ccc(Cl)cc2)nn(-c2cnn(C)c2)c1=O
IC50 (second compound 0.1 µM): 9.26 µM
IC50 (second compound 0.316 µM): 7.72 µM
IC50 (second compound 1 µM): 9.6 µM
IC50 (second compound 3.16 µM): 8.29 µM
IC50 (second compound 10 µM): 7.34 µM
viability, T/C [1]: 97.6%
viability, T/C [2]: 87.1%
viability, T/C [3]: 86.9%
viability, T/C [4]: 80.3%
viability, T/C [5]: 76.4%
viability, T/C [6]: 47.1%
viability, T/C [7]: 82.4%
viability, T/C [8]: 88.5%
viability, T/C [9]: 74.4%
viability, T/C [10]: 76.9%
viability, T/C [11]: 61.8%
viability, T/C [12]: 46.4%
viability, T/C [13]: 82.5%
viability, T/C [14]: 89%
viability, T/C [15]: 84%
viability, T/C [16]: 75.8%
viability, T/C [17]: 62.7%
viability, T/C [18]: 49.4%
viability, T/C [19]: 82.5%
viability, T/C [20]: 80%
viability, T/C [21]: 76.2%
viability, T/C [22]: 70.2%
viability, T/C [23]: 59.2%
viability, T/C [24]: 48.3%
viability, T/C [25]: 85.3%
viability, T/C [26]: 87.8%
viability, T/C [27]: 83.2%
viability, T/C [28]: 74.7%
viability, T/C [29]: 66.9%
viability, T/C [30]: 43.9%
